Experimental data published in patent US7759331B2, “Pyridine-containing macroheterococylic compounds as kinase inhibitors” (Janssen Pharmaceutica NV, priority 2006, dated 2010).

What was measured:
Assay in all cases: Protein kinase selectivity panel
Format in all cases: biochemical
Settings in all cases: 1.0 μM compound, 10 μM ATP
ALK(h) = ALK(h) (Homo sapiens, UniProt Q9UM73)
Outline: (§1)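 Substrate phosphorylation by each kinase is measured in the presence of 1.0 μM compound, using 10 μM ATP under time-linear conditions.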

Abl(m) = Abl(m) (Mus musculus, UniProt P00520)
Outline: as §1

Arg(m) = Arg(m) (Mus musculus, UniProt Q4JIM5)
Arg(m), sequence (Q4JIM5 whole entry): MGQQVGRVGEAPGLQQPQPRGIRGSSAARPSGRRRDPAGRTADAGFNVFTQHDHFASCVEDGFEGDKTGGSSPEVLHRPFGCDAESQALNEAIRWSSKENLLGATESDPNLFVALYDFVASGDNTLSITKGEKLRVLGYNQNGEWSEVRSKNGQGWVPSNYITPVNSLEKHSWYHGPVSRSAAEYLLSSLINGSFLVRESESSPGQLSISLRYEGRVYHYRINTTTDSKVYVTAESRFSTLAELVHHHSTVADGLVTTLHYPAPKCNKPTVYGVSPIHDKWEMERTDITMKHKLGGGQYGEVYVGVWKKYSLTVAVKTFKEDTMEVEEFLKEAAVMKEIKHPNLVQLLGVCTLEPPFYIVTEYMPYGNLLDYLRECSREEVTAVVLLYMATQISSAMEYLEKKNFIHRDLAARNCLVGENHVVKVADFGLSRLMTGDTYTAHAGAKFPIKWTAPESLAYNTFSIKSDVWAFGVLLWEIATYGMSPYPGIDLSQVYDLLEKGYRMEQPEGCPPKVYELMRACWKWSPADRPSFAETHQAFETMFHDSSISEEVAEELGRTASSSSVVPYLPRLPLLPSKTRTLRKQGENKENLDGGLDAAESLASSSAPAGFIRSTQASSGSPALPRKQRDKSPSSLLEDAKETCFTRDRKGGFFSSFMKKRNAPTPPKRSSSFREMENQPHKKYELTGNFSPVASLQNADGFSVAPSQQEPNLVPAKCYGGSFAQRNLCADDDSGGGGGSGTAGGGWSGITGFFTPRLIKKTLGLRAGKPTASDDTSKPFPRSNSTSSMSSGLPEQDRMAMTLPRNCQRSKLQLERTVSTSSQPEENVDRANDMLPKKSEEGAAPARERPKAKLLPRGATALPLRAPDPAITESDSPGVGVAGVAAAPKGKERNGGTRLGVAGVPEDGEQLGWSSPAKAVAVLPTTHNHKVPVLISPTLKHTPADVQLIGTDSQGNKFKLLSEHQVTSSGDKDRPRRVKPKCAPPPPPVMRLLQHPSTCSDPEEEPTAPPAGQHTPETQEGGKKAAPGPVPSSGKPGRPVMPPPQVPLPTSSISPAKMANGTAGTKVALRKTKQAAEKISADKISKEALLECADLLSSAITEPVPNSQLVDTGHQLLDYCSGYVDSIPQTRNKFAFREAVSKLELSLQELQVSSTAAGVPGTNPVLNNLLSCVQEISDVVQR
Outline: as §1

CDK2/cyclinE(h) = CDK2/cyclinE(h) (Homo sapiens, UniProt P24941)
Outline: as §1

CDK6/cyclinD3(h) = CDK6/cyclinD3(h) (Homo sapiens, UniProt Q00534)
Outline: as §1

CHK2(h) = CHK2(h) (Homo sapiens, UniProt O96017)
Outline: as §1

CSK(h) = CSK(h) (Homo sapiens, UniProt P41240)
Outline: as §1

EGFR(h) = EGFR(h) (Homo sapiens, UniProt P00533)
Outline: as §1

GSK3α(h) = GSK3α(h) (Homo sapiens, UniProt P49840)
GSK3α(h), sequence (P49840 whole entry): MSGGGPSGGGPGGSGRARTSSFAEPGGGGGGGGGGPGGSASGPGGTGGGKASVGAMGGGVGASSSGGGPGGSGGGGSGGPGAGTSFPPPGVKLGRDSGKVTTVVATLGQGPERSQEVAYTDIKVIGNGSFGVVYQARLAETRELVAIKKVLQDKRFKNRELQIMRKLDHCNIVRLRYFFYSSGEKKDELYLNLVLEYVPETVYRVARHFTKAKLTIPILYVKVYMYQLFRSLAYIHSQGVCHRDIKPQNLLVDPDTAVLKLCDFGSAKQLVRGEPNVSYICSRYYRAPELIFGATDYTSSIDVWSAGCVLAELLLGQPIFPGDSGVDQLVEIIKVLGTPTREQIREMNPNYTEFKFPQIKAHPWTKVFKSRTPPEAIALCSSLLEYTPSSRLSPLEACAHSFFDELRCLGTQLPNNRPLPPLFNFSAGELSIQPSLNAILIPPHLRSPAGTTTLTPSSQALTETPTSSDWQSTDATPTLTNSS
Outline: as §1

JNK3(h) = JNK3(h) (Homo sapiens, UniProt P53779)
Outline: as §1

Lck(h) = Lck(h) (Homo sapiens, UniProt P06239)
Outline: as §1

MAPK2(h) = MAPK2(h) (Homo sapiens, UniProt P28482)
Outline: as §1

MAPK2(m) = MAPK2(m) (Mus musculus, UniProt P63085)
MAPK2(m), sequence (P63085 whole entry): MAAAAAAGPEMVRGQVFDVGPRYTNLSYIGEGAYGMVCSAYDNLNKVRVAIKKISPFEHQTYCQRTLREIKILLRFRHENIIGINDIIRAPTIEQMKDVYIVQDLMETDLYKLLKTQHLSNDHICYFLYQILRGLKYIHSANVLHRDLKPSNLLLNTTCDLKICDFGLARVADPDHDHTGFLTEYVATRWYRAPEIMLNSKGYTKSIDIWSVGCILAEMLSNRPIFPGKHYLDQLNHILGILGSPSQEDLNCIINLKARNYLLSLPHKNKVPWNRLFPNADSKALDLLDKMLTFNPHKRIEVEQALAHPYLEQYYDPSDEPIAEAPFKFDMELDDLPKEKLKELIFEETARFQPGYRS
Outline: as §1

MAPKAP-K2(h) = MAPKAP-K2(h) (Homo sapiens, UniProt P49137)
MAPKAP-K2(h), sequence (P49137 whole entry): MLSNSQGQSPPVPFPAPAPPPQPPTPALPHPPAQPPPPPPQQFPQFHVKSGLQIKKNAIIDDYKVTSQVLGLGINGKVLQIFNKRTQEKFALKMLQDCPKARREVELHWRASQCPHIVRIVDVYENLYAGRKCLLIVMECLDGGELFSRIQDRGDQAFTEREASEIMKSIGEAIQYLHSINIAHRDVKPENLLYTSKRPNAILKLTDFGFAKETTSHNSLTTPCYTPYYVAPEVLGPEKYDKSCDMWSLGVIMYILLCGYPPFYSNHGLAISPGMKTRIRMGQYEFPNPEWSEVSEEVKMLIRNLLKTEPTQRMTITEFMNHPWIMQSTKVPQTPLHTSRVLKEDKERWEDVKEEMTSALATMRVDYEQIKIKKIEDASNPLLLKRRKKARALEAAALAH
Outline: as §1

MKK7β(h) = biological target: T1, MKK7β(h) (Homo sapiens, UniProt O14733)
T1 sequence (O14733 1-419): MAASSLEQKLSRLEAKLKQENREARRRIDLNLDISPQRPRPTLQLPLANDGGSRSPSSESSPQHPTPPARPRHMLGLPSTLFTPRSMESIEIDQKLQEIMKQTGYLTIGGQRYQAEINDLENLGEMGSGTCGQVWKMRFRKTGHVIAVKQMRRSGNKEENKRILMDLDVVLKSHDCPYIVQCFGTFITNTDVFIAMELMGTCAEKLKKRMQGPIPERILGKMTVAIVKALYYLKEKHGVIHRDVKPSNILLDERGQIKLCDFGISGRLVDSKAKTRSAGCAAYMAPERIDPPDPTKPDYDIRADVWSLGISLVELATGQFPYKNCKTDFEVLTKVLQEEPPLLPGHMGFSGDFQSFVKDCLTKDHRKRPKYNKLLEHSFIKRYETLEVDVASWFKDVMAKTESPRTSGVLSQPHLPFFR
Outline: as §1

NEK2(h) = biological target: T2, NEK2(h) (Homo sapiens, UniProt P51955)
T2 sequence (P51955 1-445): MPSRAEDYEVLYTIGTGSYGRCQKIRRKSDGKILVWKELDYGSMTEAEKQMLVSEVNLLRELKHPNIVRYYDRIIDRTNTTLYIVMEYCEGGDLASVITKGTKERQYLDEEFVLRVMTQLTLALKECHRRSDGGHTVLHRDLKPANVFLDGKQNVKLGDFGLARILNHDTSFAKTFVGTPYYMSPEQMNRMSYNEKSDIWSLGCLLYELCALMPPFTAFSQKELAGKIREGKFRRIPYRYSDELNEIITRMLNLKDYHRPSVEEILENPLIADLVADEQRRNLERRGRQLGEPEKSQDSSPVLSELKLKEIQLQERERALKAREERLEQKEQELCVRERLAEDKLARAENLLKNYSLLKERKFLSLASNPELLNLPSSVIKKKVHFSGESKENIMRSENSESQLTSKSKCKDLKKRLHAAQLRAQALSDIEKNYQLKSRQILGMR
Outline: as §1

PAK2(h) = PAK2(h) (Homo sapiens, UniProt Q13177)
PAK2(h), sequence (Q13177 whole entry): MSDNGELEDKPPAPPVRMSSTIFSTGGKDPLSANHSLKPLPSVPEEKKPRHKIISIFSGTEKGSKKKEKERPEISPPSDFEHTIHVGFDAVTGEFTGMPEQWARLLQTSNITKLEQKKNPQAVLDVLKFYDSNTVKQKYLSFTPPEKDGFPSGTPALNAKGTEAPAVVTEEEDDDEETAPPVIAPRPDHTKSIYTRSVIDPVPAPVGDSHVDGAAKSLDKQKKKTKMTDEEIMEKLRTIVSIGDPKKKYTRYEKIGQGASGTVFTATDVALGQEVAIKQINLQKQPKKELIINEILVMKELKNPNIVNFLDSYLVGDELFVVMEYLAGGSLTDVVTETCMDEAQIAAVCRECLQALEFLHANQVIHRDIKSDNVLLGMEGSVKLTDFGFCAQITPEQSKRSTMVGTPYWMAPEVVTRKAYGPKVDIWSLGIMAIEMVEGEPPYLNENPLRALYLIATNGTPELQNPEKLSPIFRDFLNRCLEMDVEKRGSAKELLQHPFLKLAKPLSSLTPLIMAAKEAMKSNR
Outline: as §1

PKBα(h) = PKBα(h) (Homo sapiens, UniProt P31749)
PKBα(h), sequence (P31749 whole entry): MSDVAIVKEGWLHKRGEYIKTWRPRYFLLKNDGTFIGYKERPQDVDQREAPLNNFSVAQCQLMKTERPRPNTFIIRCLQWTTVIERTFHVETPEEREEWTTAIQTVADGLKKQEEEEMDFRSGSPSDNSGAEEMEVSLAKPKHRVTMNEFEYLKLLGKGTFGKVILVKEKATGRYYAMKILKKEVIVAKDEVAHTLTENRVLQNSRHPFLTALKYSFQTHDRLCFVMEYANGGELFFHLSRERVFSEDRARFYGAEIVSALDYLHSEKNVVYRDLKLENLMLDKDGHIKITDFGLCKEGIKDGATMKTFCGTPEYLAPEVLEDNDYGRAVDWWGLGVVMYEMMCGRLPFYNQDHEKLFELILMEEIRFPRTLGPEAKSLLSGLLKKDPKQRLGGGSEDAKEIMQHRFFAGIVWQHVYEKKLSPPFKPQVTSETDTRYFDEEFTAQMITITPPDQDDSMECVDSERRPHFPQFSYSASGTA
Outline: as §1

PKCα(h) = PKCα(h) (Homo sapiens, UniProt P17252)
Outline: as §1

PKCι(h) = biological target: T3, PKCι(h) (Homo sapiens, UniProt P41743)
T3 sequence (P41743 1-596): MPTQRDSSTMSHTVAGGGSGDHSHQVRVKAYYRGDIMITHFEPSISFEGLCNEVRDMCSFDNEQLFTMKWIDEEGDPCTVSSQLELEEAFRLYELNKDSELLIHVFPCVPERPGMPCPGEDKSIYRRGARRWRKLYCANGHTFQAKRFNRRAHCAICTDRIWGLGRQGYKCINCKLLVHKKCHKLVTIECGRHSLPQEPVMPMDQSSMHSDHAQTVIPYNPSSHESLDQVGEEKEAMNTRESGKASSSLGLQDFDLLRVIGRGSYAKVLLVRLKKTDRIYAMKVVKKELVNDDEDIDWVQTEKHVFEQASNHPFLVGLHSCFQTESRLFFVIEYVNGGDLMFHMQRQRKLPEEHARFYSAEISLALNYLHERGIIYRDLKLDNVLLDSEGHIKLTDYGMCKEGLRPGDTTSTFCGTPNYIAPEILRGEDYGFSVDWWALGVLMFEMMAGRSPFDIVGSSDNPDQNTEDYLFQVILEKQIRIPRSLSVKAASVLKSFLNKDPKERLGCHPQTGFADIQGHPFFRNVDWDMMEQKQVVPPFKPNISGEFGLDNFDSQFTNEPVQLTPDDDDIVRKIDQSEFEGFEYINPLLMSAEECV
Outline: as §1

SAPK2a(h) = SAPK2a(h) (Homo sapiens, UniProt Q16539)
Outline: as §1

ALK(h), sequence (Q9UM73 19-1620): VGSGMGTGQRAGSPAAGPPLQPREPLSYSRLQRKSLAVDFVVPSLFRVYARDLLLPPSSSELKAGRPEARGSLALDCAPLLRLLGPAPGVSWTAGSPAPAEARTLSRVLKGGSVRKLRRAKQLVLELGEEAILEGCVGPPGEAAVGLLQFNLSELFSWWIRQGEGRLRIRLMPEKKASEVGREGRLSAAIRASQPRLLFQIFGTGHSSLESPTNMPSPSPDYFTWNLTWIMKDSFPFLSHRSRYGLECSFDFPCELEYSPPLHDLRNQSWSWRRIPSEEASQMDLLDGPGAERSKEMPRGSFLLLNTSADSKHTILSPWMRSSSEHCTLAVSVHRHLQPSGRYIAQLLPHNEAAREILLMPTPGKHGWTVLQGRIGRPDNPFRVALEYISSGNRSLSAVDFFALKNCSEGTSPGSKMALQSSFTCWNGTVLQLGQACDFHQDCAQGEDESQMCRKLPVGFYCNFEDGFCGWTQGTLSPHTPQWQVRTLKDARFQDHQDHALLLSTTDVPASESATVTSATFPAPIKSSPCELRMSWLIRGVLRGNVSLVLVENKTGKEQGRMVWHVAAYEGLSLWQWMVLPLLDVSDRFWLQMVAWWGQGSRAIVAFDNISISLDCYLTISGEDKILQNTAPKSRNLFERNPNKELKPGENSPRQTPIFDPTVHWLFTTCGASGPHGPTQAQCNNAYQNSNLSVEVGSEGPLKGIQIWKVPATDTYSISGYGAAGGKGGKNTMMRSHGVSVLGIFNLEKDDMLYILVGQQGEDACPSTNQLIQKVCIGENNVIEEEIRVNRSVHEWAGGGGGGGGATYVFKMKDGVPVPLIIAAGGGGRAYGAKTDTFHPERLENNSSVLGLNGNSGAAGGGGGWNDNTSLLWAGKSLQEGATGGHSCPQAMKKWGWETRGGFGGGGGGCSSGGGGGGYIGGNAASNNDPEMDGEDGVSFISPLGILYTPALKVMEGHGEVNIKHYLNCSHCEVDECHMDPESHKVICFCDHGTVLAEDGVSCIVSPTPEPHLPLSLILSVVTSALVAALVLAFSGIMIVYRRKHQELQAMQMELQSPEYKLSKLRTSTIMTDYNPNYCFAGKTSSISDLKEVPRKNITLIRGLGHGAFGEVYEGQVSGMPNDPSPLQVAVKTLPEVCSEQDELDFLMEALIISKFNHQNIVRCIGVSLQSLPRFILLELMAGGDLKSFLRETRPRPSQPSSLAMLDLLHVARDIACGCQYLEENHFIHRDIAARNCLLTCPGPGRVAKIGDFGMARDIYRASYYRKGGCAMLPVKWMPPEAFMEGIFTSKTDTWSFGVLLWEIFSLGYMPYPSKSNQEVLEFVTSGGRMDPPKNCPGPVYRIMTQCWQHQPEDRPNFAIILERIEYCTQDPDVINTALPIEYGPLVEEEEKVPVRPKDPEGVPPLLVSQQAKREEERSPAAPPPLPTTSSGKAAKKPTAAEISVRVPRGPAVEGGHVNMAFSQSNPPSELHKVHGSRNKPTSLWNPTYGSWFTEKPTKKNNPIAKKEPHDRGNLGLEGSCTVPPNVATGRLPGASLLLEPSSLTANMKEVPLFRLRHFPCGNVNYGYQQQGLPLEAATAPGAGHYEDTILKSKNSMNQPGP

SMILES: CN(C)c1cc2cc(n1)CCCn1cc(c3ccccc31)C1=C(C(=O)NC1=O)c1cn(c3ccccc13)CCC2 [Cpd 2, 20-(dimethylamino)-4,14,19,26-tetraazaheptacyclo[24.6.1.1^7,14.1^18,22.0^2,6.0^8,13.0^27,32]pentatriaconta-1(33),2(6),7(35),8,10,12,18(34),19,21,27,29,31-dodecaene-3,5-dione]
- Activity at Protein Kinase Assays (% of control), ALK(h) (ALK(h)): 55 % of control
- Activity at Protein Kinase Assays (% of control), Abl(m) (Abl(m)): 108 % of control
- Activity at Protein Kinase Assays (% of control), Arg(m) (Arg(m)): 129 % of control
- Activity at Protein Kinase Assays (% of control), CDK2/cyclinE(h) (CDK2/cyclinE(h)): 84 % of control
- Activity at Protein Kinase Assays (% of control), CDK6/cyclinD3(h) (CDK6/cyclinD3(h)): 74 % of control
- Activity at Protein Kinase Assays (% of control), CHK2(h) (CHK2(h)): 94 % of control
- Activity at Protein Kinase Assays (% of control), CSK(h) (CSK(h)): 133 % of control
- Activity at Protein Kinase Assays (% of control), EGFR(h) (EGFR(h)): 96 % of control
- Activity at Protein Kinase Assays (% of control), GSK3α(h) (GSK3α(h)): 3 % of control
- Activity at Protein Kinase Assays (% of control), JNK3(h) (JNK3(h)): 107 % of control
- Activity at Protein Kinase Assays (% of control), Lck(h) (Lck(h)): 100 % of control
- Activity at Protein Kinase Assays (% of control), MAPK2(h) (MAPK2(h)): 104 % of control
- Activity at Protein Kinase Assays (% of control), MAPK2(m) (MAPK2(m)): 95 % of control
- Activity at Protein Kinase Assays (% of control), MAPKAP-K2(h) (MAPKAP-K2(h)): 101 % of control
- Activity at Protein Kinase Assays (% of control), MKK7β(h) (MKK7β(h)): 78 % of control
- Activity at Protein Kinase Assays (% of control), NEK2(h) (NEK2(h)): 102 % of control
- Activity at Protein Kinase Assays (% of control), PAK2(h) (PAK2(h)): 103 % of control
- Activity at Protein Kinase Assays (% of control), PKBα(h) (PKBα(h)): 114 % of control
- Activity at Protein Kinase Assays (% of control), PKCα(h) (PKCα(h)): 74 % of control
- Activity at Protein Kinase Assays (% of control), PKCι(h) (PKCι(h)): 117 % of control
- Activity at Protein Kinase Assays (% of control), SAPK2a(h) (SAPK2a(h)): 92 % of control
